Results taken from paper PMC6927578 (Archiv der Pharmazie, 2016).
Where two headings read alike, the source gives them in different places.

How the values were obtained:
[1] = system: HDAC activity from HeLa cell lysates; assay: Fluor de Lys in vitro fluorescence HDAC activity assay with HeLa cell lysates; type: biochemical, human; conditions: for fold reduced potency compared to SAHA: HeLa cell lysates IC50 ratio; for IC50 / % activity remaining: HeLa cell lysates; for IC50: mean of three trials with standard error; for % activity remaining: 250 μM compound
HDAC1 = HDAC1 (Homo sapiens, UniProt Q13547); assay: Fluor de Lys HDAC isoform assay, HDAC1; conditions: for isoform selectivity among HDAC1, 3 and 6: 125 μM single concentration screen (Fig. 2)
HDAC1, sequence (Q13547 whole entry, canonical isoform): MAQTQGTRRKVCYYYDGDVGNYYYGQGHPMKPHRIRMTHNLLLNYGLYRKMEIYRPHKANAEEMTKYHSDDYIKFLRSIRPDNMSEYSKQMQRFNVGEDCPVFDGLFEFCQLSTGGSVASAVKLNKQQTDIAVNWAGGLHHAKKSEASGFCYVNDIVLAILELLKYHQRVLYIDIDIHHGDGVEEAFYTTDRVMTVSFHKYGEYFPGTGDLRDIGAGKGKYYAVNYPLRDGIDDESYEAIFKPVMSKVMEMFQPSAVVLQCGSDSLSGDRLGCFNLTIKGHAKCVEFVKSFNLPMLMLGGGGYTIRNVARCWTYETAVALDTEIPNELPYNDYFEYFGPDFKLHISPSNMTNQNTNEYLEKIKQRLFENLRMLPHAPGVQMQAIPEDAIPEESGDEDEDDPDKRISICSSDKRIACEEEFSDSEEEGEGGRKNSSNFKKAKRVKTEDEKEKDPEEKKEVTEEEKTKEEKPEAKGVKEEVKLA

HDAC3 = HDAC3 (Homo sapiens, UniProt O15379); assay: Fluor de Lys HDAC isoform assay, HDAC3
HDAC3, sequence (O15379 whole entry, canonical isoform): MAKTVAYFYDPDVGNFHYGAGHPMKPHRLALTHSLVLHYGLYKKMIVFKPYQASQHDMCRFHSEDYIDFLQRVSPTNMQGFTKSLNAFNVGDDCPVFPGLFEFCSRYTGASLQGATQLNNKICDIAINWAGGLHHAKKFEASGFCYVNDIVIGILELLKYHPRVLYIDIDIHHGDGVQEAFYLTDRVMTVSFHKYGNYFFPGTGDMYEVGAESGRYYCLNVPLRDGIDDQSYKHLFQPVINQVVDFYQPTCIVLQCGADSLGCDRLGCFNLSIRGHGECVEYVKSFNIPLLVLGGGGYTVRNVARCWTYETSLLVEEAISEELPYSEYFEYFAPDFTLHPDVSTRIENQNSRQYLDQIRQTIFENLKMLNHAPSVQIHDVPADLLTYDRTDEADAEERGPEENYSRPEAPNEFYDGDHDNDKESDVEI
HDAC3, sequence (Q9Y618 395-489 partner limits assumed): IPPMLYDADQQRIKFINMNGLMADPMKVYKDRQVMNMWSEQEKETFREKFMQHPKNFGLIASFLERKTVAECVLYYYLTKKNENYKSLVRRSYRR

HDAC6 = molecular target: T1, HDAC6 (Homo sapiens, UniProt Q9UBN7); assay: Fluor de Lys HDAC isoform assay, HDAC6
T1 sequence (Q9UBN7 1-1215): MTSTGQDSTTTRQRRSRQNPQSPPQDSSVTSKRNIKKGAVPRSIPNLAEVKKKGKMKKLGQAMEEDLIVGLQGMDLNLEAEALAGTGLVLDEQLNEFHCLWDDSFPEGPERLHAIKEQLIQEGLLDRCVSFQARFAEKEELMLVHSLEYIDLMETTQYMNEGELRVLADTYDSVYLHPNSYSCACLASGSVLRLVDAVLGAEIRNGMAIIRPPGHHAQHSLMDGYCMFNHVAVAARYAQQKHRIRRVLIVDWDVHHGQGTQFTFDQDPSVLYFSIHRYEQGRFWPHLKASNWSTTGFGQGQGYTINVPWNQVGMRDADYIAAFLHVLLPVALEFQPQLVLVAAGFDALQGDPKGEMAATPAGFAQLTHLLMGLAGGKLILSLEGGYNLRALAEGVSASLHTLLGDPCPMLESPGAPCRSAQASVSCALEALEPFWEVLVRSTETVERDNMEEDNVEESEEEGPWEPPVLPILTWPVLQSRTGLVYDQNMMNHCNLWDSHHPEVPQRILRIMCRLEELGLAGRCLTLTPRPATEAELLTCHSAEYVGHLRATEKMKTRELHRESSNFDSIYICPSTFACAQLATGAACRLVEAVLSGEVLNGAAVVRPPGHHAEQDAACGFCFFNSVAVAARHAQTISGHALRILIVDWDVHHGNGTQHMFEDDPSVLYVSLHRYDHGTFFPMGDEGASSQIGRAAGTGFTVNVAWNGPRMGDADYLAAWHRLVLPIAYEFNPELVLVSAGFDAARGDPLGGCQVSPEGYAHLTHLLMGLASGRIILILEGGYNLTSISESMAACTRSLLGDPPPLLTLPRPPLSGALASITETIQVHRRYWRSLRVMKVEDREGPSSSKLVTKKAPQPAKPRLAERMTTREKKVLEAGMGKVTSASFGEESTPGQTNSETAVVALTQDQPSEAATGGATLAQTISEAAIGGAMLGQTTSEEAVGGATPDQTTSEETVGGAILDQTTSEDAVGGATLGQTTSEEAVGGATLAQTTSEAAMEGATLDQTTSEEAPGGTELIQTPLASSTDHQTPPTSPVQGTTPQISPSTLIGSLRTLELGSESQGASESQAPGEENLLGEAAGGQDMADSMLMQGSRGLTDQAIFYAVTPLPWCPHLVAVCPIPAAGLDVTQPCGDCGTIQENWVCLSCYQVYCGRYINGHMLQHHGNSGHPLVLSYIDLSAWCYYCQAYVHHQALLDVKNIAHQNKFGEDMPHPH

[2] = Solubility observed in the HDAC assay; type: physicochemical; conditions: assay conditions; prevented testing above 250 μM
[3] = 125 μM single concentration screen

SMILES | fold reduced potency compared to SAHA [1] | IC50 [1] | isoform selectivity among HDAC1, 3 and 6 (HDAC1) | IC50 (HDAC1) | preference for HDAC1 versus HDAC3 (HDAC1; ratio of IC50 values) | IC50 (HDAC3) | IC50 (HDAC6) | % activity remaining [1] | activity remaining, HDAC1 (HDAC1; [3]) | IC50 (HDAC1; read-out: IC50 HDAC1, mean of at least three trials with standard error) | inhibition of HDAC3 (HDAC3; [3]) | inhibition of HDAC6 (HDAC6; [3]) | solubility [2]
CCCCCN(O)C(=O)CCCCCCC(=O)Nc1ccccc1 [Compound 2b, N^1-pentyl-N^1-hydroxy-N^8-phenyloctanediamide] | 1700 fold | 153 ± 14 µM | little to no isoform selectivity |  |  |  |  |  |  |  |  |  | 
O=C(CCCCCCC(=O)N(O)Cc1ccccc1)Nc1ccccc1 [Compound 2c, N^1-benzyl-N^1-hydroxy-N^8-phenyloctanediamide] |  | 293 ± 32 µM | preferential HDAC1 inhibition | 177 ± 21 µM | 2.5 fold | 440 ± 23 µM | 287 ± 9 µM |  |  |  |  |  | 
CN(O)C(=O)CCCCCCC(=O)Nc1ccccc1 [Compound 2a, N^1-hydroxy-N^1-methyl-N^8-phenyloctanediamide] | > 8800 fold | 794 ± 41 µM | little to no isoform selectivity |  |  |  |  |  |  |  |  |  | 
O=C(CCCCCCC(=O)N(O)Cc1ccc(-c2ccccc2)cc1)Nc1ccccc1 [Compound 2e, N^1-(biphenyl-4-methyl)-N^1-hydroxy-N^8-phenyloctanediamide] |  | > 500 µM | preferential HDAC1 inhibition |  |  |  |  | 101 ± 1% activity with 250 μM^b) | 58±2% | 233 ± 40 µM | statistically insignificant inhibition | statistically insignificant inhibition | low solubility at high concentrations
O=C(CCCCCCC(=O)N(O)CCc1ccccc1)Nc1ccccc1 [Compound 2d, N^1-hydroxy-N^1-phenethyl-N^8-phenyloctanediamide] |  | > 500 µM | roughly similar potency against the isoforms |  |  |  |  | 80 ± 2% activity at 250 μM^b) |  |  |  |  | low solubility at high concentrations
